Laboratory results: patent US6432997B1, “Pyrazole pesticides” (Rhone-Poulenc, Inc., priority 1997, dated 2002)

How the values were obtained:
[1] = tested on: southern armyworm, cotton aphid, tobacco budworm and greenbug; experiment: Systemic tests (soil drench / root uptake, systemic evaluation); assay type: in vivo
Method: For southern root-knot nematode and systemic tests for southern armyworm, cotton aphid, tobacco budworm and greenbug, a stock solution or suspension was prepared by adding 15 mg of the test compound to 250 mg of dimethylformamide, 1250 mg of acetone and 3 mg of the emulsifier blend referenced above. Water was then added to provide a test compound concentration of 150 ppm. When necessary, sonication was provided to insure complete dispersion.
Southern armyworm on tomato—systemic evaluation: This test was conducted in conjunction with the southern root-knot nematode evaluation (discussed below). The tomato plants, grown in the soil (at an initial compound test screening rate of 6.6 ppm soil concentration or about 150 ppm solution concentration) for nematode evaluation, were then utilized for evaluation of a compound's uptake via roots and subsequent systemic transport to the tomato foliage. […]
Cotton aphid and tobacco budworm (on cotton) and greenbug and tobacco budworm (on sorghum)—systemic evaluation: A 7.0 ml aliquot of the 150 ppm nematode test solution was applied to deliver the equivalent of 10.0 ppm soil concentration dose as a drench to 6 cm pots containing cotton and sorghum plants. […] Again at six days, the plants were rated for aphid activity and the cotton aphids and greenbugs were counted and mortality was assessed. […] Mortality was assessed six days after infestation. […]

[2] = tested on: Lucilia sericata; settings: single species; from WO 92/13451 (Schering Agrochemicals Ltd.); cited from earlier work

Substance	activity in the systemic tests [1]	activity against Lucilia sericata [2]
5-Amino-1-[2,6-dichloro-4-(trifluoromethyl)phenyl]-4-methylsulfinyl-N-hydroxy-N-methyl-1H-pyrazole carboximidamide [Compound 1]	particularly good activity	
5-chloro-1-[2,6-dichloro-4-(trifluoromethyl)phenyl]-4-(4,5-1H-pyrazole		activity against a single species Lucilia sericata
5-Amino-1-[2,6-dichloro-4-(trifluoromethyl)phenyl]-4-trifluoromethylsulfinyl-N-hydroxy-N-methyl-1H-pyrazole carboximidamide [Compound 2]	particularly good activity	
